# Tests used:
# Type in all cases: in vivo
# [1] = test system: Annual bluegrass; assay: Pre-emergence herbicide test; details: read-out: % plant inhibition (Anbg); for inhibition at 1120 g/ha: 1.12 kg/ha
# In short: (§1)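 Known dose of active, dissolved or suspended in acetone or water, delivered onto seed bed prior to emergence and buried under untreated topsoil. Greenhouse incubation with watering from below. Percentage inhibition rated 10-14 days after seeding.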
# [2] = test system: Barnyardgrass; assay: Pre-emergence herbicide test; details: Echinochloa crus-galli, read-out: % plant inhibition (Bygr); for inhibition at 1120 g/ha: 1.12 kg/ha
# In short: as §1
# [3] = test system: Cocklebur; assay: Pre-emergence herbicide test; details: Xanthium strumarium, read-out: % plant inhibition (Cobu); for inhibition at 1120 g/ha: 1.12 kg/ha
# In short: as §1
# [4] = test system: Downy Brome; assay: Pre-emergence herbicide test; details: Bromus tectorum, read-out: % plant inhibition (Dobr); for inhibition at 1120 g/ha: 1.12 kg/ha
# In short: as §1
# [5] = test system: Indian Mustard; assay: Pre-emergence herbicide test; details: Brassica juncea, read-out: % plant inhibition (Inmu); for inhibition at 1120 g/ha: 1.12 kg/ha
# In short: as §1
# [6] = test system: Morningglory; assay: Pre-emergence herbicide test; details: Ipomoea, read-out: % plant inhibition (Mogl); for inhibition at 1120 g/ha: 1.12 kg/ha
# In short: as §1
# [7] = test system: Seedling johnsongrass; assay: Pre-emergence herbicide test; details: Sorghum halepense, read-out: % plant inhibition (Sejg); for inhibition at 1120 g/ha: 1.12 kg/ha
# In short: as §1
# [8] = test system: Velvetleaf; assay: Pre-emergence herbicide test; details: Abutilon theophrasti, read-out: % plant inhibition (Vele); for inhibition at 1120 g/ha: 1.12 kg/ha
# In short: as §1
# [9] = test system: Wild buckwheat; assay: Pre-emergence herbicide test; details: Fallopia convolvulus, read-out: % plant inhibition (Wibw); for inhibition at 1120 g/ha: 1.12 kg/ha
# In short: as §1
# [10] = test system: Yellow nutsedge; assay: Pre-emergence herbicide test; details: Cyperus, read-out: % plant inhibition (Yens); for inhibition at 1120 g/ha: 1.12 kg/ha
# In short: as §1
# [11] = test system: Annual bluegrass; assay: Post-emergence herbicide test; details: read-out: % plant inhibition (Anbg); for inhibition at 1120 g/ha: 1.12 kg/ha
# In short: (§2)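 Greenhouse-raised seedlings and perennial propagule shoots, aged 2–3 weeks, receive an atomized spray at 10 psig. The solution or suspension carries roughly 0.4% emulsifier and is applied at 200 gallons/acre; injury is rated as % inhibition after about 11 days.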
# [12] = test system: Barnyardgrass; assay: Post-emergence herbicide test; details: Echinochloa crus-galli, read-out: % plant inhibition (Bygr); for inhibition at 1120 g/ha: 1.12 kg/ha
# In short: as §2
# [13] = test system: Cocklebur; assay: Post-emergence herbicide test; details: Xanthium strumarium, read-out: % plant inhibition (Cobu); for inhibition at 1120 g/ha: 1.12 kg/ha
# In short: as §2
# [14] = test system: Downy Brome; assay: Post-emergence herbicide test; details: Bromus tectorum, read-out: % plant inhibition (Dobr); for inhibition at 1120 g/ha: 1.12 kg/ha
# In short: as §2
# [15] = test system: Indian Mustard; assay: Post-emergence herbicide test; details: Brassica juncea, read-out: % plant inhibition (Inmu); for inhibition at 1120 g/ha: 1.12 kg/ha
# In short: as §2
# [16] = test system: Morningglory; assay: Post-emergence herbicide test; details: Ipomoea, read-out: % plant inhibition (Mogl); for inhibition at 1120 g/ha: 1.12 kg/ha
# In short: as §2
# [17] = test system: Seedling johnsongrass; assay: Post-emergence herbicide test; details: Sorghum halepense, read-out: % plant inhibition (Sejg); for inhibition at 1120 g/ha: 1.12 kg/ha
# In short: as §2
# [18] = test system: Velvetleaf; assay: Post-emergence herbicide test; details: Abutilon theophrasti, read-out: % plant inhibition (Vele); for inhibition at 1120 g/ha: 1.12 kg/ha
# In short: as §2
# [19] = test system: Wild buckwheat; assay: Post-emergence herbicide test; details: Fallopia convolvulus, read-out: % plant inhibition (Wibw); for inhibition at 1120 g/ha: 1.12 kg/ha
# In short: as §2
# [20] = test system: Yellow nutsedge; assay: Post-emergence herbicide test; details: Cyperus, read-out: % plant inhibition (Yens); for inhibition at 1120 g/ha: 1.12 kg/ha
# In short: as §2
Compound,inhibition at 1120 g/ha [1] [%],inhibition at 1120 g/ha [2] [%],inhibition at 1120 g/ha [3] [%],inhibition at 1120 g/ha [4] [%],inhibition at 1120 g/ha [5] [%],inhibition at 1120 g/ha [6] [%],inhibition at 1120 g/ha [7] [%],inhibition at 1120 g/ha [8] [%],inhibition at 1120 g/ha [9] [%],inhibition at 1120 g/ha [10] [%],inhibition at 1120 g/ha [11] [%],inhibition at 1120 g/ha [12] [%],inhibition at 1120 g/ha [13] [%],inhibition at 1120 g/ha [14] [%],inhibition at 1120 g/ha [15] [%],inhibition at 1120 g/ha [16] [%],inhibition at 1120 g/ha [17] [%],inhibition at 1120 g/ha [18] [%],inhibition at 1120 g/ha [19] [%],inhibition at 1120 g/ha [20] [%],also measured
CC(=NOCC(N)=O)c1cc(-c2nn(C)c(C(F)(F)F)c2Cl)c(F)cc1Cl [Compound 105],0,70,10,40,80,80,60,90,80,20,30,20,20,0,30,40,20,80,100,20,–
CC(C#N)c1cc(-c2nn(C)c(C(F)(F)F)c2Cl)c(F)cc1Cl (stereo not shown) [Compound 106],30,80,20,80,90,60,80,80,100,0,30,60,60,20,60,100,40,100,90,10,–
CC(O)c1cc(-c2nn(C)c(C(F)(F)F)c2Cl)c(F)cc1Cl (stereo not shown) [Compound 107],20,80,20,30,80,100,40,90,80,0,0,30,50,0,40,50,20,90,90,10,–
"Cn1nc(-c2cc(CBr)c(Cl)cc2F)c(Cl)c1C(F)(F)F [Compound 108, 3-[5-(bromomethyl)-4-chloro-2-fluorophenyl]-4-chloro-1-methyl-5-(trifluoromethyl)-1H-pyrazole]",–,–,–,–,–,–,–,–,–,–,–,–,–,–,–,–,–,–,–,–,inhibition at 11210 g/ha ([1]; 11.21 kg/ha): 50%; inhibition at 11210 g/ha ([2]; 11.21 kg/ha): 100%; inhibition at 11210 g/ha ([3]; 11.21 kg/ha): 80%; inhibition at 11210 g/ha ([4]; 11.21 kg/ha): 100%; inhibition at 11210 g/ha ([5]; 11.21 kg/ha): 100%; inhibition at 11210 g/ha ([6]; 11.21 kg/ha): 90%; inhibition at 11210 g/ha ([7]; 11.21 kg/ha): 90%; inhibition at 11210 g/ha ([8]; 11.21 kg/ha): 100%; inhibition at 11210 g/ha ([9]; 11.21 kg/ha): 100%; inhibition at 11210 g/ha ([10]; 11.21 kg/ha): 20%; inhibition at 11210 g/ha ([11]; 11.21 kg/ha): 90%; inhibition at 11210 g/ha ([12]; 11.21 kg/ha): 100%; inhibition at 11210 g/ha ([13]; 11.21 kg/ha): 100%; inhibition at 11210 g/ha ([14]; 11.21 kg/ha): 100%; inhibition at 11210 g/ha ([15]; 11.21 kg/ha): 100%; inhibition at 11210 g/ha ([16]; 11.21 kg/ha): 100%; inhibition at 11210 g/ha ([17]; 11.21 kg/ha): 90%; inhibition at 11210 g/ha ([18]; 11.21 kg/ha): 100%; inhibition at 11210 g/ha ([19]; 11.21 kg/ha): 100%; inhibition at 11210 g/ha ([20]; 11.21 kg/ha): 0%
Cn1nc(-c2cc(CCl)c(Cl)cc2F)c(Cl)c1C(F)(F)F [Compound 109],20,90,30,20,90,70,80,90,100,0,40,30,40,0,40,60,20,100,90,10,–

# — US5530126A, “Process for the preparation of substituted 6-(pyrazol-3yl)-1,4-benzoxazin-3-ones” (Monsanto Company, priority 1994, dated 1996)
